Measured values from BindingDB's records for patent US20250313563 (The Broad Institute, 2025).
“And” between values parts separate entries of the source, which are not always exact repeats. Identical values can stand only once.

Tests used:
[1] = target: Glycogen synthase kinase-3 alpha (Homo sapiens, UniProt P49840); assay: TR-FRET Assay
Procedure, shortened: (§1)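 TR-FRET readout: streptavidin-d2 (40 nM in added detection mix) plus Tb-anti-pSer641 Ab (2 nM in mix). Steps were 30 min compound preincubation, kinase reaction, then EDTA stop.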

[2] = target: Glycogen synthase kinase-3 beta (Homo sapiens, UniProt P49841); assay: TR-FRET Assay
Procedure, shortened: as §1

Chain of Glycogen synthase kinase-3 beta (P49841 whole entry): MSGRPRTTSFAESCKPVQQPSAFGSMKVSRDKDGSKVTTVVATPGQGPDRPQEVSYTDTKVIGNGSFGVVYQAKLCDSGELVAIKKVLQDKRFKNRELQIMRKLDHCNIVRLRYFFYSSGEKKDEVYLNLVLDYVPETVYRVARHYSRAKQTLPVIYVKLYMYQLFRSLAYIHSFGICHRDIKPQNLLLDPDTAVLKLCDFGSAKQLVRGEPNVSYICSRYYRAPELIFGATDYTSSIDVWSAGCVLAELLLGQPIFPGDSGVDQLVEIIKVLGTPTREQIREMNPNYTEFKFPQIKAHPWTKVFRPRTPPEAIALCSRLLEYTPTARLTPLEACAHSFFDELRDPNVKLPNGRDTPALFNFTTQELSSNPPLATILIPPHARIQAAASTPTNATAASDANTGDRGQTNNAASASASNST
Chain of Glycogen synthase kinase-3 alpha (P49840 whole entry): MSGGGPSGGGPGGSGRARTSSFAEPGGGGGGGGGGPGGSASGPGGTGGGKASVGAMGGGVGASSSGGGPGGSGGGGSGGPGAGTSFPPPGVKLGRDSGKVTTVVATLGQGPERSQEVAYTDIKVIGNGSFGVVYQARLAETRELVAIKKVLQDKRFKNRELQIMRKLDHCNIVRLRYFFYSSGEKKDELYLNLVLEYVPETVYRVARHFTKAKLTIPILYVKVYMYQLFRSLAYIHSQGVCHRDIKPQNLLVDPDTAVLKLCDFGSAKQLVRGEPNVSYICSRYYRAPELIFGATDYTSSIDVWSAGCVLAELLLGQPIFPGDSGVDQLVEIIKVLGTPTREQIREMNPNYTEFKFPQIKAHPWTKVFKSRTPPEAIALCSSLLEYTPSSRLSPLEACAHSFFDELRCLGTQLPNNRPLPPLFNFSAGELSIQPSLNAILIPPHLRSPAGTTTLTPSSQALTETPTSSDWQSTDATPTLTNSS

SMILES	IC50 [1]	IC50 [2]
CCC1(c2cccc(N3CCOCC3)c2)C2=C(CC(C)(C)CC2=O)NC2N=NC(C(F)(F)F)=C21 (centres undefined) [US20250313563, Compound 810507]	< 100 nM	< 100 nM
CC1(C)CC(=O)C2=C(C1)NC1=C(CN=N1)C21CCN(S(=O)(=O)c2cccc(C#N)c2)CC1 [US20250313563, Compound 947254]	< 100 nM	< 100 nM and 100 to 1000 nM
CC1(C)CC(=O)C2=C(C1)NC1=C(CN=N1)[C@]21CCN(S(=O)(=O)CC2CC2)C1 [US20250313563, Compound 943481]	< 100 nM and 100 to 1000 nM	< 100 nM and 100 to 1000 nM
CC1(C)CC(=O)C2=C(C1)NC1N=NC=C1C21CCCN(S(=O)(=O)c2ccccc2)CC1 (centres undefined) [US20250313563, Compound 889578]	< 100 nM	< 100 nM
CC[C@]1(c2cccc(CN(C)c3cc(C)cc(C)n3)c2)C2=CN=NC2NC2=C1C(=O)CC(C)(C)C2 (some centres undefined) [US20250313563, Compound 945615]	> 5000 nM	> 5000 nM
CC1(C)CC(=O)C2=C(C1)NC1=C(CN=N1)C21CN(S(=O)(=O)C2CC2)C1 [US20250313563, Compound 913259]	< 100 nM	< 100 nM
CCC1(c2cccc(-c3ccnc(OC)c3)c2)C2=CN=NC2NC2=C1C(=O)CC(C)(C)C2 (centres undefined) [US20250313563, Compound 883850]	< 100 nM	100 to 1000 nM
CCC1(c2cccc(-c3c(C)nn(C)c3C)c2)C2=C(CC(C)(C)CC2=O)NC2N=NC(C)=C21 (centres undefined) [US20250313563, Compound 883995]	< 100 nM	< 100 nM
CC1(C)CC(=O)C2=C(C1)NC1=C(CN=N1)C21CCN(S(=O)(=O)c2ccc(C(F)(F)F)cc2)CC1 [US20250313563, Compound 947256]	< 100 nM	< 100 nM
CCC1(c2cccc(S(=O)(=O)CC)c2)C2=CN=NC2NC2=C1C(=O)CC(C)(C)C2 (centres undefined) [US20250313563, Compound 889579]	< 100 nM	< 100 nM
CCC1(CC)C2=C(N=NC2)NC2=C1C(=O)CC(C)(C)C2 [US20250313563, Compound 810505]	1000 to 5000 nM	> 5000 nM
CN1C[C@]2(C3=C(CC(C)(C)CC3=O)NC3N=NC(C4CC(F)(F)C4)=C32)c2ccccc21 (some centres undefined) [US20250313563, Compound 119047]	1000 to 5000 nM	100 to 1000 nM
CC[C@]1(c2cccc(Br)c2)C2=CN=NC2NC2=C1C(=O)C[C@H](C(F)(F)F)C2 (some centres undefined) [US20250313563, Compound 826655]	> 5000 nM	> 5000 nM
CC[C@]1(c2cccc(C(F)(F)F)c2)C2=CN=NC2NC2=C1C(=O)N[C@@H](C)C2 (some centres undefined) [US20250313563, Compound 912097]	100 to 1000 nM	> 5000 nM
CC[C@]1(c2cccc(N3CCC3(C)C)c2)C2=CN=NC2NC2=C1C(=O)CC(C)(C)C2 (some centres undefined) [US20250313563, Compound 913140]	< 100 nM	100 to 1000 nM
CCC1(c2cccc(C(C)C)c2)C2=CN=NC2NC2=C1C(=O)CC(C)(C)C2 (centres undefined) [US20250313563, Compound 801322]	< 100 nM	100 to 1000 nM

SMILES	IC50 [1]	IC50 [2]
CCC1(c2ccccc2)C2=C(N=NC2)NC2=C1C(=O)CC1(CCC1)C2 (centres undefined) [US20250313563, Compound 811555]	100 to 1000 nM	100 to 1000 nM
CC[C@@]1(c2cccc(-c3cncn3C)c2)C2=CN=NC2NC2=C1C(=O)CC(C)(C)C2 (some centres undefined) [US20250313563, Compound 945605]	< 100 nM	< 100 nM
CCC1(c2cccc(OC(C)C)c2)C2=CN=NC2NC2=C1C(=O)CC(C)(C)C2 (centres undefined) [US20250313563, Compound 801448]	< 100 nM	100 to 1000 nM
CC1(C)CC2=C(C(=O)[C@H]1F)C1(CCOCC1)C1=C(N=NC1)N2 [US20250313563, Compound 883836]	100 to 1000 nM	1000 to 5000 nM
CC1(C)CC(=O)C2=C(C1)NC1=C(CN=N1)C21CN(C(=O)c2ccccc2)C1 [US20250313563, Compound 893315]	> 5000 nM	> 5000 nM
CC[C@@]1(c2cccc(-c3ccncc3F)c2)C2=CN=NC2NC2=C1C(=O)CC(C)(C)C2 (some centres undefined) [US20250313563, Compound 943519]	100 to 1000 nM	1000 to 5000 nM
CC1(C)CC(=O)C2=C(C1)NC1=C(CN=N1)C21CN(CCc2ccccc2)C1 [US20250313563, Compound 929441]	> 5000 nM	> 5000 nM
CCC1(c2cccc(N3CCCC3)c2)C2=CN=NC2NC2=C1C(=O)CC(C)(C)C2 (centres undefined) [US20250313563, Compound 801317]	100 to 1000 nM	100 to 1000 nM
CC[C@]1(c2cccc(N3CCCCC3)c2)C2=C(CC(C)(C)CC2=O)NC2N=NC(C(F)(F)F)=C21 (some centres undefined) [US20250313563, Compound 816800]	< 100 nM	< 100 nM
CC1(C)CC(=O)C2=C(C1)NC1N=NC=C1[C@@]21CCCN(S(=O)(=O)Cc2ccccc2)CC1 (some centres undefined) [US20250313563, Compound 945473]	< 100 nM	100 to 1000 nM
O=C1C2=C(NC3N=NC=C3C23CCOCC3)[C@@H]2CC[C@H]1C2 (some centres undefined) [US20250313563, Compound 912081]	100 to 1000 nM	1000 to 5000 nM
CCN(c1cccnc1)c1cccc([C@]2(CC)C3=CN=NC3NC3=C2C(=O)CC(C)(C)C3)c1 (some centres undefined) [US20250313563, Compound 917089]	100 to 1000 nM	1000 to 5000 nM
CCC1(c2cccc(-c3ccnnc3)c2)C2=CN=NC2NC2=C1C(=O)CC(C)(C)C2 (centres undefined) [US20250313563, Compound 927342]	< 100 nM	< 100 nM
CC[C@]1(c2cccc(-c3cn(C)nc3C(C)C)c2)C2=C(CC(C)(C)CC2=O)NC2N=NC(C)=C21 (some centres undefined) [US20250313563, Compound 913040]	100 to 1000 nM	1000 to 5000 nM
CC1(C)CC(=O)C2=C(C1)NC1=C(CN=N1)C21CCN(S(=O)(=O)c2ccccc2OC(F)F)CC1 [US20250313563, Compound 945668]	< 100 nM	< 100 nM and 100 to 1000 nM
CC[C@@]1(c2cccc(-c3ccnc(C)c3)c2)C2=C(CC(C)(C)CC2=O)NC2N=NC(C)=C21 (some centres undefined) [US20250313563, Compound 913018]	100 to 1000 nM	1000 to 5000 nM

Second part, the compound after the results:

IC50 [1]	IC50 [2]	SMILES
< 100 nM	< 100 nM	CC[C@@]1(c2cccc(-c3c([N+](=O)O)c(C)nn3C)c2)C2=CN=NC2NC2=C1C(=O)NC(C)(C)C2 (some centres undefined) [US20250313563, Compound 952209]
100 to 1000 nM	1000 to 5000 nM	CCC1(c2cccc(C(F)(F)F)c2)C2=CN=NC2NC2=C1C(=O)N(c1cc(C)n(C)n1)CC2 (centres undefined) [US20250313563, Compound 950608]
< 100 nM	< 100 nM and 100 to 1000 nM	CC[C@]1(c2cccc(Oc3ncccn3)c2)C2=C(CC(C)(C)NC2=O)NC2N=NC(C(F)(F)F)=C21 (some centres undefined) [US20250313563, Compound 951607]
< 100 nM	100 to 1000 nM	CC[C@]1(c2cccc(C(F)(F)F)c2)C2=CN=NC2NC2=C1C(=O)N(c1ccc(C)cc1)CC2 (some centres undefined) [US20250313563, Compound 949118]
100 to 1000 nM	> 5000 nM	CC[C@@]1(c2cccc(-c3cnn(-c4ccncc4)c3)c2)C2=CN=NC2NC2=C1C(=O)NC(C)(C)C2 (some centres undefined) [US20250313563, Compound 952912]
< 100 nM	100 to 1000 nM	CCC1(c2cccc(Oc3ncccn3)c2)C2=C(CC(C)(C)NC2=O)NC2N=NC(F)=C21 (centres undefined) [US20250313563, Compound 950615]
< 100 nM	100 to 1000 nM	CC[C@@]1(c2cccc(-c3ccnc4c3cnn4C)c2)C2=CN=NC2NC2=C1C(=O)NC(C)(C)C2 (some centres undefined) [US20250313563, Compound 952913]
< 100 nM	100 to 1000 nM	CCC1(c2cccc(C(F)(F)F)c2)C2=CN=NC2NC2=C1C(=O)N(C1=CN=NC1)CC2 (centres undefined) [US20250313563, Compound 950479]
1000 to 5000 nM	> 5000 nM	CC[C@]1(c2cccc(-c3ccncc3C(F)(F)F)c2)C2=CN=NC2NC2=C1C(=O)NC(C)(C)C2 (some centres undefined) [US20250313563, Compound 949516]
100 to 1000 nM	> 5000 nM	CC[C@@]1(c2cccc(-c3cc(C)nn3C)c2)C2=CN=NC2NC2=C1C(=O)CC(C)(C)[C@@H]2F (some centres undefined) [US20250313563, Compound 947657]
1000 to 5000 nM	> 5000 nM	CC[C@@]1(c2cccc(C3CCCC3)c2)C2=CN=NC2NC2=C1C(=O)CC(C)(C)C2 (some centres undefined) [US20250313563, Compound 949399]
< 100 nM and 100 to 1000 nM	< 100 nM and 1000 to 5000 nM	CC1(C)CC(=O)C2=C(C1)NC1=C(CN=N1)C21CCN(S(=O)(=O)C2=CN=C3CC=CC=C3C2)CC1 [US20250313563, Compound 947462]
< 100 nM	< 100 nM	CC(=O)N1C[C@]2(C[C@]3(CO2)C2=C(N=NC2)NC2=C3C(=O)CC(C)(C)C2)[C@H]1C [US20250313563, Compound 948439]
< 100 nM	100 to 1000 nM	Cc1ccccc1C(=O)N1CC2(C1)CC1(CO2)C2=C(N=NC2)NC2=C1C(=O)CC(C)(C)C2 (centres undefined) [US20250313563, Compound 947287]
< 100 nM	< 100 nM	CC1(C)CC(=O)C2=C(C1)NC1=C(CN=N1)C21CCN(S(=O)(=O)c2cccc3ccncc23)CC1 [US20250313563, Compound 947901]
< 100 nM	< 100 nM	CC1(C)CC(=O)C2=C(C1)NC1=C(CN=N1)C21COC2(CN(C(=O)c3ccc(F)cc3)C2)C1 (centres undefined) [US20250313563, Compound 947292]
100 to 1000 nM	> 5000 nM	CC[C@@]1(c2cccc(-c3ccnc4c3CCCC4)c2)C2=C(N=NC2)NC2=C1C(=O)N(Cc1ccccc1)C2 [US20250313563, Compound 948552]
1000 to 5000 nM and > 5000 nM	> 5000 nM	CC[C@@]1(c2cccc(Cc3ncccn3)c2)C2=CN=NC2NC2=C1C(=O)CC(C)(C)C2 (some centres undefined) [US20250313563, Compound 947499]
< 100 nM	100 to 1000 nM	Cc1cc([C@H]2CC[C@@]3(CC2)C2=C(N=NC2)NC2=C3C(=O)CC(C)(C)C2)ccn1 [US20250313563, Compound 948416]
1000 to 5000 nM	> 5000 nM	CC[C@@]1(c2cccc(C(F)(F)F)c2)C2=CN=NC2NC2=C1C(=O)N(c1ccc(OC)cc1)CC2 (some centres undefined) [US20250313563, Compound 948227]
